Results on one molecule are retold here after US11007194B2, “Method of treating a proliferative disease” (Array BioPharma Inc., priority 2011, dated 2021).

The test system of this assay is Hmex1906 primary human melanoma tumors. Briefly: Hmex1906 primary human melanoma xenograft in nude mice, emergence of resistance under continuous vs intermittent dosing. The class given is in vivo. Particulars: 5 mg/kg bid. How it is done:
Hmex1906 primary human melanoma tumors are implanted at passage 3 into nude mice. The mice were monitored until the implanted tumors reached 200-400 mm^3. Once this size is reached, the mice are dosed bid with 5 mg/kg of a Raf inhibitor (Compound of Formula II) for 4 weeks. Some of the mice continue treatment while others are subject to an intermittent treatment schedule of 4 weeks of treatment and 2 weeks of drug holiday.
On the technique in general: Xenograft models place foreign cells or tissue in a host animal.

Regarding `COC(=O)N[C@@H](C)CNc1nccc(-c2cn(C(C)C)nc2-c2cc(Cl)cc(NS(C)(=O)=O)c2F)n1` [Compound of Formula II], the “emergence of resistance to the BRAF inhibitor” value (continuous dosing, nude mice with Hmex1906 tumors (200-400 mm^3 at start)) was “Resistance emerged in all mice”; the “emergence of resistance to the BRAF inhibitor” value (intermittent schedule: 4 weeks of treatment and 2 weeks of drug holiday, nude mice with Hmex1906 tumors, 5 mg/kg) was “no evidence of resistance”; the “emergence of resistance to the BRAF inhibitor” value (intermittent schedule: 4 weeks of treatment and 2 weeks of drug holiday, nude mice with Hmex1906 tumors, listed as BRAF inhibitor of formula II, 5 mg/kg) was “delays or prevents the onset of resistance”.
